pIC50: −log10 of the molar value.
Tested on: 699152-130-R-J1-PDC complex spheroid growth
Assay: Anticancer human tumor 699152-130-R-J1-PDC patient-derived pancreatic carcinoma cell line growth inhibition [AhR]
Conditions: for pIC50: curve of first compound; for viability, T/C: stronger effect = lower value
Method in brief: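 Agents were dosed in half-log steps down from roughly clinical Cmax, or from 10 microM where Cmax was unknown, alone and with AhR antagonists. Read-out: percent test/control growth of tumor spheroids containing HUVEC and MSC stromal cells.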

[1] = second compound 0.1 µM, first compound 0.000949 µM
[2] = second compound 0.1 µM, first compound 0.003 µM
[3] = second compound 0.1 µM, first compound 0.00949 µM
[4] = second compound 0.1 µM, first compound 0.03 µM
[5] = second compound 0.1 µM, first compound 0.0949 µM
[6] = second compound 0.1 µM, first compound 0.3 µM
[7] = second compound 0.316 µM, first compound 0.000949 µM
[8] = second compound 0.316 µM, first compound 0.003 µM
[9] = second compound 0.316 µM, first compound 0.00949 µM
[10] = second compound 0.316 µM, first compound 0.03 µM
[11] = second compound 0.316 µM, first compound 0.0949 µM
[12] = second compound 0.316 µM, first compound 0.3 µM
[13] = second compound 1 µM, first compound 0.000949 µM
[14] = second compound 1 µM, first compound 0.003 µM
[15] = second compound 1 µM, first compound 0.00949 µM
[16] = second compound 1 µM, first compound 0.03 µM
[17] = second compound 1 µM, first compound 0.0949 µM
[18] = second compound 1 µM, first compound 0.3 µM
[19] = second compound 3.16 µM, first compound 0.000949 µM
[20] = second compound 3.16 µM, first compound 0.003 µM
[21] = second compound 3.16 µM, first compound 0.00949 µM
[22] = second compound 3.16 µM, first compound 0.03 µM
[23] = second compound 3.16 µM, first compound 0.0949 µM
[24] = second compound 3.16 µM, first compound 0.3 µM
[25] = second compound 10 µM, first compound 0.000949 µM
[26] = second compound 10 µM, first compound 0.003 µM
[27] = second compound 10 µM, first compound 0.00949 µM
[28] = second compound 10 µM, first compound 0.03 µM
[29] = second compound 10 µM, first compound 0.0949 µM
[30] = second compound 10 µM, first compound 0.3 µM
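Note: compound exposure lasted 7 days after spheroids had grown for 3 days.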

**Q.** How did the pIC50 (second compound 0.1 µM) turn out when `CC(C)CC(NC(=O)C(Cc1ccccc1)NC(=O)c1cnccn1)B(O)O` (stereo not given) + Cc1cncc(-c2nc(NCCc3c[nH]c4ccccc34)c3ncn(C(C)C)c3n2)c1 was run?
**A.** 7.82

**Q.** What about the pIC50 (second compound 0.316 µM) of the same compound?
**A.** 7.79

**Q.** And the pIC50 (second compound 1 µM)?
**A.** 7.77

**Q.** And the pIC50 (second compound 3.16 µM)?
**A.** 7.80

**Q.** And the pIC50 (second compound 10 µM)?
**A.** > 9.02

**Q.** And the viability, T/C [1]?
**A.** 107%

**Q.** What about the viability, T/C [2] of the same compound?
**A.** 104%

**Q.** What about the viability, T/C [3] of the same compound?
**A.** 82.4%

**Q.** What about the viability, T/C [4] of the same compound?
**A.** 1.43%

**Q.** What about the viability, T/C [5] of the same compound?
**A.** 2.12%

**Q.** What about the viability, T/C [6] of the same compound?
**A.** 0.56%

**Q.** What about the viability, T/C [7] of the same compound?
**A.** 99.4%

**Q.** What about the viability, T/C [8] of the same compound?
**A.** 112%

**Q.** And the viability, T/C [9]?
**A.** 93.8%

**Q.** What about the viability, T/C [10] of the same compound?
**A.** 0.83%

**Q.** What about the viability, T/C [11] of the same compound?
**A.** 0.54%

**Q.** What about the viability, T/C [12] of the same compound?
**A.** 0.39%

**Q.** And the viability, T/C [13]?
**A.** 119%

**Q.** And the viability, T/C [14]?
**A.** 111%

**Q.** What about the viability, T/C [15] of the same compound?
**A.** 100%

**Q.** What about the viability, T/C [16] of the same compound?
**A.** 0.8%

**Q.** What about the viability, T/C [17] of the same compound?
**A.** 0.31%

**Q.** What about the viability, T/C [18] of the same compound?
**A.** 0.34%

**Q.** What about the viability, T/C [19] of the same compound?
**A.** 80.3%

**Q.** What about the viability, T/C [20] of the same compound?
**A.** 92.8%

**Q.** What about the viability, T/C [21] of the same compound?
**A.** 91.3%

**Q.** And the viability, T/C [22]?
**A.** 0.56%

**Q.** What about the viability, T/C [23] of the same compound?
**A.** 0.26%

**Q.** What about the viability, T/C [24] of the same compound?
**A.** 0.31%

**Q.** And the viability, T/C [25]?
**A.** 10.4%

**Q.** And the viability, T/C [26]?
**A.** 12.2%

**Q.** And the viability, T/C [27]?
**A.** 5.17%

**Q.** What about the viability, T/C [28] of the same compound?
**A.** 0.33%

**Q.** And the viability, T/C [29]?
**A.** 0.3%

**Q.** And the viability, T/C [30]?
**A.** 0.39%

**Q.** What does the source list for `CCc1c2c(nc3ccc(O)cc13)-c1cc3c(c(=O)n1C2)COC(=O)[C@]3(O)CC` + Cc1cncc(-c2nc(NCCc3c[nH]c4ccccc34)c3ncn(C(C)C)c3n2)c1?
**A.** pIC50 (second compound 0.1 µM): 7.41; pIC50 (second compound 0.316 µM): 7.48; pIC50 (second compound 1 µM): 7.16; pIC50 (second compound 3.16 µM): 7.91; pIC50 (second compound 10 µM): > 9.02; viability, T/C [1]: 96.7%; viability, T/C [2]: 91.2%; viability, T/C [3]: 60.3%; viability, T/C [4]: 56.5%; viability, T/C [5]: 41%; viability, T/C [6]: 29%; viability, T/C [7]: 92.4%; viability, T/C [8]: 84.3%; viability, T/C [9]: 61.3%; viability, T/C [10]: 54.4%; viability, T/C [11]: 37.6%; viability, T/C [12]: 28.7%; viability, T/C [13]: 102%; viability, T/C [14]: 94.2%; viability, T/C [15]: 70%; viability, T/C [16]: 58.8%; viability, T/C [17]: 50.9%; viability, T/C [18]: 30.2%; viability, T/C [19]: 74.8%; viability, T/C [20]: 66%; viability, T/C [21]: 49%; viability, T/C [22]: 43.3%; viability, T/C [23]: 32.2%; viability, T/C [24]: 23.2%; viability, T/C [25]: 10.7%; viability, T/C [26]: 11.6%; viability, T/C [27]: 12.5%; viability, T/C [28]: 11.7%; viability, T/C [29]: 9.62%; viability, T/C [30]: 11%

**Q.** What does the source list for `COc1cc(Nc2ncc3c(n2)-c2ccc(Cl)cc2C(c2c(F)cccc2OC)=NC3)ccc1C(=O)O` + Cc1cncc(-c2nc(NCCc3c[nH]c4ccccc34)c3ncn(C(C)C)c3n2)c1?
**A.** pIC50 (second compound 0.1 µM): < 5.00; pIC50 (second compound 0.316 µM): < 5.00; pIC50 (second compound 1 µM): < 5.00; pIC50 (second compound 3.16 µM): < 5.00; pIC50 (second compound 10 µM): > 7.50; viability, T/C (second compound 0.1 µM, first compound 0.0316 µM): 80.3%; viability, T/C (second compound 0.1 µM, first compound 0.1 µM): 77.1%; viability, T/C (second compound 0.1 µM, first compound 0.316 µM): 73.4%; viability, T/C (second compound 0.1 µM, first compound 1 µM): 56.5%; viability, T/C (second compound 0.1 µM, first compound 3.16 µM): 56.1%; viability, T/C (second compound 0.1 µM, first compound 10 µM): 57.1%; viability, T/C (second compound 0.316 µM, first compound 0.0316 µM): 76.2%; viability, T/C (second compound 0.316 µM, first compound 0.1 µM): 81%; viability, T/C (second compound 0.316 µM, first compound 0.316 µM): 72.4%; viability, T/C (second compound 0.316 µM, first compound 1 µM): 59.8%; viability, T/C (second compound 0.316 µM, first compound 3.16 µM): 55.9%; viability, T/C (second compound 0.316 µM, first compound 10 µM): 54.8%; viability, T/C (second compound 1 µM, first compound 0.0316 µM): 95.5%; viability, T/C (second compound 1 µM, first compound 0.1 µM): 85.3%; viability, T/C (second compound 1 µM, first compound 0.316 µM): 79.5%; viability, T/C (second compound 1 µM, first compound 1 µM): 69%; viability, T/C (second compound 1 µM, first compound 3.16 µM): 59.7%; viability, T/C (second compound 1 µM, first compound 10 µM): 55.5%; viability, T/C (second compound 3.16 µM, first compound 0.0316 µM): 92.5%; viability, T/C (second compound 3.16 µM, first compound 0.1 µM): 80.9%; viability, T/C (second compound 3.16 µM, first compound 0.316 µM): 84.8%; viability, T/C (second compound 3.16 µM, first compound 1 µM): 64.6%; viability, T/C (second compound 3.16 µM, first compound 3.16 µM): 64.2%; viability, T/C (second compound 3.16 µM, first compound 10 µM): 57.9%; viability, T/C (second compound 10 µM, first compound 0.0316 µM): 23.8%; viability, T/C (second compound 10 µM, first compound 0.1 µM): 21.3%; viability, T/C (second compound 10 µM, first compound 0.316 µM): 21.3%; viability, T/C (second compound 10 µM, first compound 1 µM): 16.9%; viability, T/C (second compound 10 µM, first compound 3.16 µM): 16.3%; viability, T/C (second compound 10 µM, first compound 10 µM): 22.3%

— PubChem BioAssay AID1919001 (Molecular Pharmacology Branch, DTP, NCI, 2023)
